In patent US20250235543A1, “MODIFIED PROTEINS AND PROTEIN DEGRADERS” (Cullgen (Shanghai), Inc., priority 2021, published 2025):
Read-outs that look alike come from different tables or passages of the source.

Key:
cyclin D1 = test: Cyclin D1 percentage degradation in Calu-1 cells (immunoblotting); format: cell-based; details: 16 hours
How it was run: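 Cyclin D1 degradation was assessed by western blot. Clarified lysates, obtained by RIPA lysis with inhibitors and centrifugation at 13,000 rpm, were normalized by BCA protein assay and separated by SDS-PAGE. Bands were detected with Western ECL Substrate on a Bio-Rad ChemiDoc MP Imaging system and quantified in Image Lab software to derive percentage degradation.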

CDK4 = target: T1, CDK4 (Homo sapiens, UniProt P11802); test: CDK4 percentage degradation in Calu-1 cells (immunoblotting); format: cell-based; details: for inhibition at 0.2 µM: read-out: CDK4 Degradation (200 nM); for inhibition at 10 µM: read-out: CDK4 Degradation (10 μM)
T1 construct: endogenous in cells; host or cells: Calu-1
How it was run: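 CDK4 degradation was measured by immunoblotting. Cells were washed in cold PBS and lysed in RIPA buffer with inhibitors for 30 min at 4° C., then spun at 13,000 rpm to clear. After BCA protein determination, lysates were heated at 99° C. for 5 min in Laemmli buffer, resolved on SDS-PAGE, imaged on a ChemiDoc MP with ECL substrate, and band intensities quantified.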

T1 sequence (P11802 2-303 limits assumed): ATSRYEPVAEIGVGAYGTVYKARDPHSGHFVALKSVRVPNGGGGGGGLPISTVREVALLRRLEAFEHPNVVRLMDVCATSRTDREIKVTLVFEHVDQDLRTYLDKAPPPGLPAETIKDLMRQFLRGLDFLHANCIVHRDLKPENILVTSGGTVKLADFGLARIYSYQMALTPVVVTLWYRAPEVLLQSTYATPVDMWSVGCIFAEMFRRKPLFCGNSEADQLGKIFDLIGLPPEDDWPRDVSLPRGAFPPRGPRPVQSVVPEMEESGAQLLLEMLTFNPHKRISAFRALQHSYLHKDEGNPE
T1 sequence (P24385 whole entry partner): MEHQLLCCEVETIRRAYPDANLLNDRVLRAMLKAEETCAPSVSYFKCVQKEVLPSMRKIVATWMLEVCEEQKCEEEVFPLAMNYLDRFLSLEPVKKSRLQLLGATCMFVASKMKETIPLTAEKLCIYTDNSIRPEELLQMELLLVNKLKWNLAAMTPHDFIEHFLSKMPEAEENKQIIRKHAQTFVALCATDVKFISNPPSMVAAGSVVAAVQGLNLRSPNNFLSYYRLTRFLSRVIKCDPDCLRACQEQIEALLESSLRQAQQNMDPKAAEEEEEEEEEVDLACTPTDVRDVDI
T1 sequence (Q16531 2-1140 limits assumed, further chain): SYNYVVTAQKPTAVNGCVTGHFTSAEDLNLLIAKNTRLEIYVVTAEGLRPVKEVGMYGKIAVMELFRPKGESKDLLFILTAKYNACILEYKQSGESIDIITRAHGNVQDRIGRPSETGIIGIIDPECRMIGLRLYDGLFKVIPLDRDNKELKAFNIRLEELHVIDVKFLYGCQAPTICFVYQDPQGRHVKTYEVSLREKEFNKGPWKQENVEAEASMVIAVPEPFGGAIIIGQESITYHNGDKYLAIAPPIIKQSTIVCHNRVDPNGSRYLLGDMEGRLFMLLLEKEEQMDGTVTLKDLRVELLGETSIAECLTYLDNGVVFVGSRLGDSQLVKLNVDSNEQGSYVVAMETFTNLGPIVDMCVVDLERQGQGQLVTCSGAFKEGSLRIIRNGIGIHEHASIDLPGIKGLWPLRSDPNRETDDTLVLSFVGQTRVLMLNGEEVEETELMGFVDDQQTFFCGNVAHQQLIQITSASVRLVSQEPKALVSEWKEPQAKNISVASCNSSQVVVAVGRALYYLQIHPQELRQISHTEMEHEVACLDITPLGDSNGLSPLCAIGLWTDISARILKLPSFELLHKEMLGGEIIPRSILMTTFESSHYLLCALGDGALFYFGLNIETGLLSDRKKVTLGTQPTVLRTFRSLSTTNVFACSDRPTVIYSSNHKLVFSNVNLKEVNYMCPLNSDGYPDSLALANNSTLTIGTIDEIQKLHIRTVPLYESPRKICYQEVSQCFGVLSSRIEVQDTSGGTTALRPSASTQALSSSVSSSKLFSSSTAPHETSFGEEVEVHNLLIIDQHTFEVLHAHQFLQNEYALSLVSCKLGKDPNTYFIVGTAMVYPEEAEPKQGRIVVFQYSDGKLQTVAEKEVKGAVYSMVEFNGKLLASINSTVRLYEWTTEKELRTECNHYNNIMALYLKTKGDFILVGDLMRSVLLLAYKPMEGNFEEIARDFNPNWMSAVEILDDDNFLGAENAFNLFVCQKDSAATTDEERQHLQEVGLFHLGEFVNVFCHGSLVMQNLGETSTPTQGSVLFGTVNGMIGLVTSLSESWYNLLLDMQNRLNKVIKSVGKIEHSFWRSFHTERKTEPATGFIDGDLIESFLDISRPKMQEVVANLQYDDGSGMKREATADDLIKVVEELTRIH

**Q.** Which results are given for CC(=O)c1c(C)c2cnc(Nc3ccc(N4CCN(CC(=O)NCCOCCOCCC(=O)Nc5ccccc5C(=O)Nc5ncc(C)o5)CC4)cn3)nc2n(C2CCCC2)c1=O [CPD-066, 2-(3-(2-(2-(2-(4-(6-((6-Acetyl-8-cyclopentyl-5-methyl-7-oxo-7,8-dihydropyrido[2,3-d]pyrimidin-2-yl)amino)pyridin-3-yl)piperazin-1-yl)acetamido)ethoxy)ethoxy)propanamido)-N-(5-methyloxazol-2-yl)benzamide]?
**A.** CyclinD1 Degradation (200 nM) (cyclin D1): D (protein percentage degradation <30%); inhibition at 0.2 µM (CDK4; Calu-1 cells, 200 nM, 16 hours): < 30%

**Q.** Which results are given for CC(=O)c1c(C)c2cnc(Nc3ccc(N4CCN(CC(=O)NCCOCCOCCC(=O)Nc5ccccc5C(=O)Nc5cn(C)cn5)CC4)cn3)nc2n(C2CCCC2)c1=O [CPD-063, 2-(3-(2-(2-(2-(4-(6-((6-Acetyl-8-cyclopentyl-5-methyl-7-oxo-7,8-dihydropyrido[2,3-d]pyrimidin-2-yl)amino)pyridin-3-yl)piperazin-1-yl)acetamido)ethoxy)ethoxy)propanamido)-N-(1-methyl-1H-imidazol-4-yl)benzamide]?
**A.** CyclinD1 Degradation (200 nM) (cyclin D1): D (protein percentage degradation <30%); inhibition at 0.2 µM (CDK4; Calu-1 cells, 200 nM, 16 hours): < 30%

**Q.** Which results are given for Cc1nc(NC(=O)c2ccccc2NC(=O)CCCCCCCCNC(=O)CN2CCN(c3ccc(Nc4ncc5cc(C(=O)N(C)C)n(C6CCCC6)c5n4)nc3)CC2)sc1C [CPD-293, 7-Cyclopentyl-2-((5-(4-(2-((9-((2-((4,5-dimethylthiazol-2-yl)carbamoyl)phenyl)amino)-9-oxononyl)amino)-2-oxoethyl)piperazin-1-yl)pyridin-2-yl)amino)-N,N-dimethyl-7H-pyrrolo[2,3-d]pyrimidine-6-carboxamide]?
**A.** CyclinD1 Degradation (10 μM) (cyclin D1): A (protein percentage degradation >= 80%); inhibition at 10 µM (CDK4; Calu-1 cells, 16 hours): 50 to 80%

**Q.** For CC(=O)c1c(C)c2cnc(Nc3ccc(N4CCN(C(=O)CCCCCC(=O)Nc5ccccc5C(=O)Nc5nc(C)c(C)s5)CC4)cn3)nc2n(C2CCCC2)c1=O [CPD-157, 2-(7-(4-(6-((6-Acetyl-8-cyclopentyl-5-methyl-7-oxo-7,8-dihydropyrido[2,3-d]pyrimidin-2-yl)amino)pyridin-3-yl)piperazin-1-yl)-7-oxoheptanamido)-N-(4,5-dimethylthiazol-2-yl)benzamide], which “CyclinD1 Degradation (200 nM)” value (cyclin D1) is on record?
**A.** The value was “D (protein percentage degradation <30%)”.

**Q.** And the inhibition at 0.2 µM (CDK4; Calu-1, 16 h)?
**A.** The inhibition at 0.2 µM was less than 30%.

**Q.** With CC(=O)c1c(C)c2cnc(Nc3ccc(N4CCN(CC(=O)NCCOCCOCCC(=O)Nc5ccc(F)cc5C(=O)Nc5nc(C)c(C)s5)CC4)cn3)nc2n(C2CCCC2)c1=O [CPD-152, 2-(3-(2-(2-(2-(4-(6-((6-Acetyl-8-cyclopentyl-5-methyl-7-oxo-7,8-dihydropyrido[2,3-d]pyrimidin-2-yl)amino)pyridin-3-yl)piperazin-1-yl)acetamido)ethoxy)ethoxy)propanamido)-N-(4,5-dimethylthiazol-2-yl)-5-fluorobenzamide] as the compound, how does the “CyclinD1 Degradation (200 nM)” value (cyclin D1) read?
**A.** The value was “A (protein percentage degradation >=80%)”.

**Q.** And the inhibition at 0.2 µM (CDK4; Calu-1 cells, 200 nM, 16 hours)?
**A.** Its inhibition at 0.2 µM is 50 to 80%.

**Q.** What does the source list for CC(=O)c1c(C)c2cnc(Nc3ccc(N4CCN(CC(=O)NCCOCCOCCC(=O)Nc5ccccc5C(=O)Nc5cnc(C)nc5)CC4)cn3)nc2n(C2CCCC2)c1=O [CPD-186, 2-(3-(2-(2-(2-(4-(6-((6-Acetyl-8-cyclopentyl-5-methyl-7-oxo-7,8-dihydropyrido[2,3-d]pyrimidin-2-yl)amino)pyridin-3-yl)piperazin-1-yl)acetamido)ethoxy)ethoxy)propanamido)-N-(2-methylpyrimidin-5-yl)benzamide]?
**A.** CyclinD1 Degradation (200 nM) (cyclin D1): B (protein percentage degradation <80%, and >=50%); inhibition at 0.2 µM (CDK4; Calu-1 cells, 200 nM, 16 hours): 50 to 80%

**Q.** How did the “CyclinD1 Degradation (200 nM)” value (cyclin D1) turn out when CC(=O)c1c(C)c2cnc(Nc3ccc(N4CCN(CC(=O)NCCCCCNc5cc(C#N)ccc5C(=O)Nc5ccc(N(C)C)nn5)CC4)cn3)nc2n(C2CCCC2)c1=O [CPD-376, 2-((5-(2-(4-(6-((6-Acetyl-8-cyclopentyl-5-methyl-7-oxo-7,8-dihydropyrido[2,3-d]pyrimidin-2-yl)amino)pyridin-3-yl)piperazin-1-yl)acetamido)pentyl)amino)-4-cyano-N-(6-(dimethylamino)pyridazin-3-yl)benzamide] was run?
**A.** Its value is “A (protein percentage degradation >=80%)”.

**Q.** What about the inhibition at 0.2 µM (CDK4; Calu-1 cells, 200 nM, 16 hours) of the same compound?
**A.** The inhibition at 0.2 µM was 50 to 80%.

**Q.** How did the “CyclinD1 Degradation (200 nM)” value (cyclin D1) turn out when CC(=O)c1c(C)c2cnc(Nc3ccc(N4CCN(CC(=O)NCCOCCOCCC(=O)Nc5ccccc5C(=O)Nc5ncc(C)cn5)CC4)cn3)nc2n(C2CCCC2)c1=O [CPD-055, 2-(3-(2-(2-(2-(4-(6-((6-Acetyl-8-cyclopentyl-5-methyl-7-oxo-7,8-dihydropyrido[2,3-d]pyrimidin-2-yl)amino)pyridin-3-yl)piperazin-1-yl)acetamido)ethoxy)ethoxy)propanamido)-N-(5-methylpyrimidin-2-yl)benzamide] was run?
**A.** The value was “D (protein percentage degradation <30%)”.

**Q.** And the inhibition at 0.2 µM (CDK4; Calu-1 cells, 200 nM, 16 hours)?
**A.** The inhibition at 0.2 µM was less than 30%.

**Q.** Which results are given for CC(=O)c1c(C)c2cnc(Nc3ccc(N4CCN(C(=O)CCCCNc5ccc(C)c(C(=O)Nc6nc(C)c(C)s6)c5)CC4)cn3)nc2n(C2CCCC2)c1=O [CPD-108, 5-((5-(4-(6-((6-Acetyl-8-cyclopentyl-5-methyl-7-oxo-7,8-dihydropyrido[2,3-d]pyrimidin-2-yl)amino)pyridin-3-yl)piperazin-1-yl)-5-oxopentyl)amino)-N-(4,5-dimethylthiazol-2-yl)-2-methylbenzamide]?
**A.** CyclinD1 Degradation (200 nM) (cyclin D1): D (protein percentage degradation <30%); inhibition at 0.2 µM (CDK4; Calu-1, 16 h): < 30%

**Q.** How did the “CyclinD1 Degradation (200 nM)” value (cyclin D1) turn out when CC(=O)c1c(C)c2cnc(Nc3ccc(N4CCN(C(=O)CCCCCNc5ccc(C)c(C(=O)Nc6nc(C)c(C)s6)c5)CC4)cn3)nc2n(C2CCCC2)c1=O [CPD-129, 5-((6-(4-(6-((6-Acetyl-8-cyclopentyl-5-methyl-7-oxo-7,8-dihydropyrido[2,3-d]pyrimidin-2-yl)amino)pyridin-3-yl)piperazin-1-yl)-6-oxohexyl)amino)-N-(4,5-dimethylthiazol-2-yl)-2-methylbenzamide] was run?
**A.** Its value is “D (protein percentage degradation <30%)”.

**Q.** What about the inhibition at 0.2 µM (CDK4; Calu-1, 16 h) of the same compound?
**A.** The inhibition at 0.2 µM was less than 30%.

**Q.** How did the “CyclinD1 Degradation (200 nM)” value (cyclin D1) turn out when CC(=O)c1c(C)c2cnc(Nc3ccc(N4CCN(C(=O)CCCC(=O)Nc5ccccc5C(=O)Nc5nc(C)c(C)s5)CC4)cn3)nc2n(C2CCCC2)c1=O [CPD-159, 2-(5-(4-(6-((6-Acetyl-8-cyclopentyl-5-methyl-7-oxo-7,8-dihydropyrido[2,3-d]pyrimidin-2-yl)amino)pyridin-3-yl)piperazin-1-yl)-5-oxopentanamido)-N-(4,5-dimethylthiazol-2-yl)benzamide] was run?
**A.** The value was “D (protein percentage degradation <30%)”.

**Q.** And the inhibition at 0.2 µM (CDK4; Calu-1, 16 h)?
**A.** The inhibition at 0.2 µM was 30 to 50%.

**Q.** For Cc1nc(NC(=O)c2ccccc2NC(=O)CCNC(=O)CN2CCN(Cc3ccc(Nc4ncc(F)c(-c5cc(F)c6nc(C)n(C(C)C)c6c5)n4)nc3)CC2)sc1C [CPD-273, N-(4,5-Dimethylthiazol-2-yl)-2-(3-(2-(4-((6-((5-fluoro-4-(4-fluoro-1-isopropyl-2-methyl-1H-benzo[d]imidazol-6-yl)pyrimidin-2-yl)amino)pyridin-3-yl)methyl)piperazin-1-yl)acetamido)propanamido)benzamide], which “CyclinD1 Degradation (10 μM)” value (cyclin D1) is on record?
**A.** Its value is “D (protein percentage degradation < 30%)”.

**Q.** And the inhibition at 10 µM (CDK4; Calu-1 cells, 16 hours)?
**A.** Its inhibition at 10 µM is less than 30%.

**Q.** CC(=O)c1c(C)c2cnc(Nc3ccc(N4CCN(CC(=O)NCCOCCOCCC(=O)Nc5ccccc5C(=O)Nc5ncc(C)[nH]5)CC4)cn3)nc2n(C2CCCC2)c1=O [CPD-064, 2-(3-(2-(2-(2-(4-(6-((6-Acetyl-8-cyclopentyl-5-methyl-7-oxo-7,8-dihydropyrido[2,3-d]pyrimidin-2-yl)amino)pyridin-3-yl)piperazin-1-yl)acetamido)ethoxy)ethoxy)propanamido)-N-(5-methyl-1H-imidazol-2-yl)benzamide] was tested. Which “CyclinD1 Degradation (200 nM)” value (cyclin D1) did it give?
**A.** Its value is “D (protein percentage degradation <30%)”.

**Q.** What about the inhibition at 0.2 µM (CDK4; Calu-1 cells, 200 nM, 16 hours) of the same compound?
**A.** Its inhibition at 0.2 µM is less than 30%.
